Measurements reported in patent publication US20250353873A1, “COMPOUNDS AND METHODS FOR MODULATING APOE EXPRESSION” (Ionis Pharmaceuticals, Inc., priority 2024, published 2025).
Strand notation (5' to 3'): a small letter for the sugar, then the base; units joined by * are phosphorothioate-linked, units joined directly phosphodiester-linked; [ ] holds rarer units or linkages, { } end groups; capitals alone tell only the bases. [ms] = mesyl phosphoramidate linkage; e = 2'-O-(2-methoxyethyl) (MOE); k = constrained ethyl (cEt); [5mC] = 5-methylcytosine; d = 2'-deoxy (DNA)

What was measured:
Type in all cases: in vivo
human APOE RNA [1] = assay: Activity in APOE C57BL/6NTac-Apoeem7250 knock-in mice, single ICV bolus, 16 weeks (Example 12); details: single ICV bolus 300 μg, 16 weeks post treatment, normalized to mouse Ppia
Outline: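 A single 300 μg intracerebroventricular dose was given, with PBS-treated mice as reference; cortical and spinal cord tissue was taken 16 weeks later. RT-qPCR quantified human APOE RNA, Ppia-normalized, expressed relative to PBS animals (% control).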

human APOE RNA [2] = assay: Activity in APOE C57BL/6NTac-Apoeem7250 knock-in mice, single ICV bolus, 8 weeks (Example 11); details: single ICV bolus 300 μg, 8 weeks post treatment, normalized to mouse Ppia
Outline: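 Cortical and spinal cord human APOE RNA quantified by RT-qPCR 8 weeks after a single 300 μg ICV dose in knock-in mice, Ppia-normalized. Values are percent of levels in PBS-treated animals.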

human APOE RNA [3] = assay: Activity in APOE C57BL/6NTac-Apoeem7250 knock-in mice, single ICV bolus, 20 weeks (Example 13); details: single ICV bolus 300 μg, 20 weeks post treatment, normalized to mouse Ppia
Outline: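 Cortical and spinal cord RNA was assayed by real-time RT-PCR for human APOE, normalized to mouse Ppia and reported as percent of PBS controls. Tissue was taken twenty weeks after one 300 μg intracerebroventricular bolus in APOE knock-in mice, 4 per group.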

human APOE RNA [4] = assay: Activity in APOE C57BL/6NTac-Apoeem7250 knock-in mice, single ICV bolus, 4 weeks (Example 10); details: single ICV bolus 300 μg, 4 weeks post treatment, normalized to mouse Ppia
Outline: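 Human APOE RNA, quantified by real-time RT-PCR with RTS3073 and normalized to mouse Ppia, was read in cortical brain and spinal cord 4 weeks post dosing. Dosing was a single ICV bolus of 300 μg per knock-in mouse; values are % of PBS-treated animals.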

1778120 (eA*e[5mC]eTeTeGeG*dT*dG[ms]dA[ms]dA*dT*d[5mC]*dT*dT*dT*dA[ms]kTeT*eA*eA; antisense) [Compound 1778120]
APOE RNA (% control) Cortex (human APOE RNA [1]): 75 % control | APOE RNA (% control) Spinal Cord (human APOE RNA [1]): 46 % control | APOE RNA (% control) Cortex (human APOE RNA [2]): 57 % control | APOE RNA (% control) Spinal Cord (human APOE RNA [2]): 24 % control | APOE RNA (% control) Cortex (human APOE RNA [3]): 78 % control | APOE RNA (% control) Spinal Cord (human APOE RNA [3]): 44 % control | APOE RNA (% control) Cortex (human APOE RNA [4]): 47 % control | APOE RNA (% control) Spinal Cord (human APOE RNA [4]): 58 % control

1778126 (eA*e[5mC]eTeTkG*kG*dT*dG[ms]dA[ms]dA*dT*d[5mC]*dT*dT*dT*dA[ms]kT*eT*eA*eA; antisense) [Compound 1778126]
APOE RNA (% control) Cortex (human APOE RNA [1]): 37 % control | APOE RNA (% control) Spinal Cord (human APOE RNA [1]): 22 % control | APOE RNA (% control) Cortex (human APOE RNA [2]): 23 % control | APOE RNA (% control) Spinal Cord (human APOE RNA [2]): 20 % control | APOE RNA (% control) Cortex (human APOE RNA [3]): 52 % control | APOE RNA (% control) Spinal Cord (human APOE RNA [3]): 35 % control | APOE RNA (% control) Cortex (human APOE RNA [4]): 41 % control | APOE RNA (% control) Spinal Cord (human APOE RNA [4]): 72 % control

1785600 (k[5mC]*kT*kT*dG[ms]dG[ms]dT[ms]dG*dA*dA*dT*d[5mC]*dT[ms]dT[ms]dT[ms]dA*dT*kT*kA*dA[ms]kA; antisense) [Compound 1785600]
APOE RNA (% control) Cortex (human APOE RNA [1]): 39 % control | APOE RNA (% control) Spinal Cord (human APOE RNA [1]): 30 % control | APOE RNA (% control) Cortex (human APOE RNA [2]): 36 % control | APOE RNA (% control) Spinal Cord (human APOE RNA [2]): 26 % control | APOE RNA (% control) Cortex (human APOE RNA [3]): 60 % control | APOE RNA (% control) Spinal Cord (human APOE RNA [3]): 33 % control | APOE RNA (% control) Cortex (human APOE RNA [4]): 46 % control | APOE RNA (% control) Spinal Cord (human APOE RNA [4]): 51 % control

1785616 (k[5mC]*dT[ms]dT[ms]kG*dG[ms]kT*dG[ms]dA[ms]dA[ms]dT*d[5mC]*dT*dT*dT*dA*dT[ms]kT*kA*dA[ms]kA; antisense) [Compound 1785616]
APOE RNA (% control) Cortex (human APOE RNA [1]): 47 % control | APOE RNA (% control) Spinal Cord (human APOE RNA [1]): 34 % control | APOE RNA (% control) Cortex (human APOE RNA [2]): 47 % control | APOE RNA (% control) Spinal Cord (human APOE RNA [2]): 27 % control | APOE RNA (% control) Cortex (human APOE RNA [3]): 77 % control | APOE RNA (% control) Spinal Cord (human APOE RNA [3]): 57 % control | APOE RNA (% control) Cortex (human APOE RNA [4]): 47 % control | APOE RNA (% control) Spinal Cord (human APOE RNA [4]): 66 % control

1785619 (k[5mC]*dT[ms]dT[ms]kG*dG[ms]kT*dG*dA[ms]dA[ms]dT*d[5mC]*dT*dT*dT*dA[ms]dT*kT*kA*dA[ms]kA) [Compound 1785619]
APOE RNA (% control) Cortex (human APOE RNA [1]): 40 % control | APOE RNA (% control) Spinal Cord (human APOE RNA [1]): 41 % control | APOE RNA (% control) Cortex (human APOE RNA [2]): 40 % control | APOE RNA (% control) Spinal Cord (human APOE RNA [2]): 27 % control | APOE RNA (% control) Cortex (human APOE RNA [3]): 58 % control | APOE RNA (% control) Spinal Cord (human APOE RNA [3]): 59 % control | APOE RNA (% control) Cortex (human APOE RNA [4]): 41 % control | APOE RNA (% control) Spinal Cord (human APOE RNA [4]): 41 % control
